According to patent publication US6613762B2, “Gambogic acid, analogs and derivatives as activators of caspases and inducers of apoptosis” (Cytovia, Inc., priority 1999, dated 2003):
Like-named read-outs stand apart in the source and are kept apart here. Each block holds one compound with its values, some of them ahead of it.

Key:
[1] = system: human prostate cancer cell line DU-145; experiment: Inhibition of cell proliferation (GI50) and cell death (LC50), DU-145; assay type: cell-based
Protocol: (§1) T47D, ZR-75-1, PC-3, human prostate cancer cell line DU-145, human non-small cell lung cancer cell line A-549, human small cell lung cancer cell line SHP-77, HL-60 and MRC-5 cells were grown and harvested as in Example 90. […] The samples were mixed by agitation and incubated at 37° C. for 2-4 h in a 5% CO2-95% humidity incubator. […] This determines the possible background absorbance of the test compounds. No absorbance for gambogic acid or its analogs or derivatives was found at 490 nm. After the 2-4 h incubation, the samples were read for absorbance as above (ATest).
(§2) Baseline for GI50 (dose for 50% inhibition of cell proliferation) and LC50 (dose for 50% cell death) of initial cell numbers was determined by adding an aliquot of 90 μl of cells or 90 μl of media, respectively, to wells of a 96-well microtiter plate containing 10 μl of a 10% DMSO in RPMI-1640 media solution. […] The samples were mixed by agitation and incubated at 37° C. for 2-4 h in a 5% CO2-95% humidity incubator. Absorbance was read as above, (AT=0) defining absorbance for initial cell number used as baseline in GI50 determinations and (Amin) defining absorbance for media alone used as baseline in LC50 determinations.
(§3) GI50 (dose for 50% inhibition of cell proliferation)
(§4) LC50 (dose for 50% cell death)
(§5) 50=100×[(ATest−Amin)/(AT=0−Amin)]

[2] = system: caspase cascade; experiment: Caspase cascade activation assay (Example 90), MRC-5; assay type: cell-based, human; details: human
Protocol: (§6) Human breast cancer cell lines T-47D and ZR-75-1, human prostate cancer cell line PC-3, human leukemia cancer cell line HL-60 and human non-transformed fibroblast cell line MRC-5 cells were grown according to media component mixtures designated by The American Type Culture Collection+10% FCS (Life Technologies, Inc.), in a 5% CO2-95% humidity incubator at 37° C. T-47D, ZR-75-1 and PC-3 cells were maintained at a cell density between 30 and 80% confluency and for HL-60 at a cell density of 0.1 to 0.6×10^6 cells/m. Cells were harvested at 600× g and resuspended at 0.65×10^6 cells/ml into appropriate media +10% FCS. […] The samples were mixed by agitation and incubated at room temperature.
(§7) The EC50 (nM) was determined by a sigmoidal dose-response calculation (Prism 2.0, GraphPad Software Inc.).

[3] = system: MRC-5 cells; experiment: Inhibition of cell proliferation (GI50) and cell death (LC50), MRC-5; assay type: cell-based; details: Homo sapiens, MRC5; MRC-5, 48 h; read-out: GI50 (dose for 50% inhibition of cell proliferation)
Protocol: as §1, §2, §3, §4, §5

[4] = as above; assay type: cell-based; details: human
Protocol: as §1, §2, §3, §4, §5

[5] = system: caspase cascade, human breast cancer cell line ZR-75-1; experiment: Caspase cascade activation assay (Example 90), ZR-75-1; assay type: cell-based; details: Homo sapiens, ZR-75-1; 24 h incubation; sigmoidal dose-response; read-out: ZR-75-1 EC50 (caspase activation potency)
Protocol: as §6, §7

[6] = system: caspase cascade, human prostate cancer cell line PC-3; experiment: Caspase cascade activation assay (Example 90), PC-3; assay type: cell-based; details: 24 h incubation; for EC50: Homo sapiens, sigmoidal dose-response, read-out: PC-3 EC50 (caspase activation potency)
Protocol: as §6, §7

[7] = system: T-47D cells; experiment: Inhibition of cell proliferation (GI50) and cell death (LC50), T-47D; assay type: cell-based; details: Homo sapiens, T47D, 48 h; for GI50: read-out: GI50 (dose for 50% inhibition of cell proliferation); for CC50: read-out: LC50 (dose for 50% cell death)
Protocol: as §1, §2, §3, §4, §5

[8] = system: caspase cascade, human leukemia cancer cell line HL-60; experiment: Caspase cascade activation assay (Example 90), HL-60; assay type: cell-based; details: Homo sapiens, HL-60; 24 h incubation; sigmoidal dose-response; read-out: HL-60 EC50 (caspase activation potency)
Protocol: as §6, §7

[9] = system: caspase cascade, human breast cancer cell line T-47D; experiment: Caspase cascade activation assay (Example 90), T-47D; assay type: cell-based; details: 24 h incubation; for EC50: Homo sapiens, T47D, sigmoidal dose-response, read-out: T-47D EC50 (caspase activation potency)
Protocol: as §6, §7

[10] = system: PC-3 cells; experiment: Inhibition of cell proliferation (GI50) and cell death (LC50), PC-3; assay type: cell-based
Protocol: as §1, §2, §3, §4, §5

[11] = system: caspase cascade, T-47D cells; experiment: Known antineoplastic compounds as caspase cascade activators (Example 92), T-47D; assay type: cell-based, human; details: 10 μM final, 24 h; ratio of net RFU to control; ratio around 1 = not an efficient activator
Protocol: (§8) An aliquot of 45 μl of cells was added to a well of a 96-well microtiter plate containing 5 μl of a 10% DMSO in RPMI-1640 media solution containing 100 μM of test compounds (10 μM final). An aliquot of 45 μl of cells was added to a well of a 96-well microtiter plate containing 5 μl of a 10% DMSO in RPMI-1640 media solution without test compound as the control sample. The samples were mixed by agitation and then incubated at 37° C. for 24 h in a 5% CO2-95% humidity incubator. After incubation, the samples were removed from the incubator and 50 μl of a solution containing 20 μM of N-(Ac-DEVD)-N′-ethoxycarbonyl-R110 fluorogenic substrate (SEQ ID NO:1) (Cytovia, Inc.), 20% sucrose (Sigma), 20 mM DTT (Sigma), 200 mM NaCl (Sigma), 40 mM Na PIPES buffer pH 7.2 (Sigma), and 500 μg/ml lysolecithin (Calbiochem) was added. The samples were mixed by agitation and incubated for 3 h at room temperature. Using a fluorescent plate reader (Model 1420 Wallac Instruments), an initial reading (T=0) was made approximately 1-2 min. after addition of the substrate solution, employing excitation at 485 nm and emission at 530 nm, to determine the background fluorescence of the control sample. After the 3 h incubation, the samples were read for fluorescence as above (T=3 h).
(§9) The Relative Fluorescence Unit values (RFU) were used to calculate the sample readings as follows:
(§10) The activity in caspase cascade activation was determined by the ratio of the net RFU value for test compounds to that of control samples.

[12] = system: caspase cascade, PC-3 cells; experiment: Known antineoplastic compounds as caspase cascade activators (Example 92), PC-3; assay type: cell-based, human; details: 10 μM final, 24 h; ratio of net RFU to control; ratio around 1 = not an efficient activator
Protocol: as §8, §9, §10

[13] = system: human small cell lung cancer cell line SHP-77; experiment: Inhibition of cell proliferation (GI50) and cell death (LC50), SHP-77; assay type: cell-based; details: Homo sapiens; for CC50: SHP77, 48 h, read-out: LC50 (dose for 50% cell death); for GI50: SHP77, SHP-77, 48 h, read-out: GI50 (dose for 50% inhibition of cell proliferation)
Protocol: as §1, §2, §3, §4, §5

[14] = system: ZR-75-1 cells; experiment: Inhibition of cell proliferation (GI50) and cell death (LC50), ZR-75-1; assay type: cell-based; details: Homo sapiens, ZR-75-1, 48 h; for CC50: read-out: LC50 (dose for 50% cell death); for GI50: read-out: GI50 (dose for 50% inhibition of cell proliferation)
Protocol: as §1, §2, §3, §4, §5

[15] = system: human non-small cell lung cancer cell line A-549; experiment: Inhibition of cell proliferation (GI50) and cell death (LC50), A-549; assay type: cell-based; details: Homo sapiens; for CC50: A549, 48 h, read-out: LC50 (dose for 50% cell death); for GI50: A549, A-549, 48 h, read-out: GI50 (dose for 50% inhibition of cell proliferation)
Protocol: as §1, §2, §3, §4, §5

[16] = system: HL-60 cells; experiment: Inhibition of cell proliferation (GI50) and cell death (LC50), HL-60; assay type: cell-based; details: Homo sapiens, HL-60, 48 h; for CC50: read-out: LC50 (dose for 50% cell death); for GI50: read-out: GI50 (dose for 50% inhibition of cell proliferation)
Protocol: as §1, §2, §3, §4, §5

[17] = system: KB cell line; details: cited from earlier work
[18] = system: KB-V1 cell line; details: cited from earlier work
[19] = Homo sapiens, DU-145, 48 h; read-out: GI50 (dose for 50% inhibition of cell proliferation)
[20] = Homo sapiens, PC-3, 48 h; read-out: GI50 (dose for 50% inhibition of cell proliferation)
[21] = Homo sapiens, DU-145, 48 h, read-out: LC50 (dose for 50% cell death)
[22] = Homo sapiens, PC-3, 48 h, read-out: LC50 (dose for 50% cell death)
[23] = ratio of net RFU of test compound to control, 0.16 to 10 μM
[24] = reported by Lin et al., Magn. Reson. Chem. 31:340-347 (1993)

Structure (SMILES): CC(C)=CCC/C(C)=C/Cc1c(O)c(CC=C(C)C)c2c(c1O)C(=O)C1=CC3CC4C(C)(C)OC(C/C=C(/C)C(=O)O)(C3=O)C14O2 (stereo not drawn) [Example 2, Gambogenic Acid]
GI50 [1, 19]: 600 nM
CC50 ([1]; Homo sapiens, DU-145, 48 h; read-out: LC50 (dose for 50% cell death)): 5000 nM
EC50 ([2]; 24 h incubation, sigmoidal dose-response, read-out: MRC-5 EC50 (caspase activation potency)): 1260 nM
GI50 [3]: 500 nM
CC50 ([4]; MRC-5, 48 h, read-out: LC50 (dose for 50% cell death)): 5000 nM
EC50 [5]: 1160 nM
EC50 [6]: 1350 nM
GI50 ([7]; T-47D): 500 nM
CC50 ([7]; T-47D): 500 nM
EC50 [8]: 340 nM
EC50 [9]: 310 nM
GI50 [10, 20]: 3000 nM
CC50 ([10]; Homo sapiens, PC-3, 48 h; read-out: LC50 (dose for 50% cell death)): 5000 nM

Structure (SMILES): COc1cc([C@@H]2c3cc4c(cc3[C@@H](O[C@@H]3O[C@@H]5CO[C@@H](C)O[C@H]5[C@H](O)[C@H]3O)[C@H]3COC(=O)[C@H]23)OCO4)cc(OC)c1O [Etoposide]
Caspase cascade activation ratio, T-47D [11]: 1.0
Caspase cascade activation ratio, PC-3 [12]: 0.8

Structure (SMILES): CC[C@@]1(O)C(=O)OCc2c1cc1n(c2=O)Cc2cc3ccccc3nc2-1 [Camptothecin]
Caspase cascade activation ratio, T-47D [11]: 0.7
Caspase cascade activation ratio, PC-3 [12]: 0.6

Structure (SMILES): O=c1[nH]cc(F)c(=O)[nH]1 [5-fluorouracil]
Caspase cascade activation ratio, T-47D [11]: 0.8
Caspase cascade activation ratio, PC-3 [12]: 0.7

Structure (SMILES): COC(=O)/C(C)=C\CC12OC(C)(C)C3CC(C=C4C(=O)c5c(OC)c6c(c(CC=C(C)C)c5OC431)OC(C)(CCC=C(C)C)C=C6)C2=O (stereo not drawn) [Example 6, Methyl-6-methoxy-gambogate]
CC50 [13]: 500 nM
GI50 [13]: 500 nM
CC50 [14]: 500 nM
GI50 [14]: 400 nM
CC50 [1, 21]: 900 nM
GI50 [1, 19]: 500 nM
GI50 [3]: 500 nM
CC50 at 48 h [4]: 500 nM
EC50 [6]: 5000 nM
CC50 [7]: 80 nM
GI50 ([7]; T-47D): 50 nM
CC50 [15]: 900 nM
GI50 [15]: 500 nM
CC50 [16]: 800 nM
GI50 [16]: 100 nM
EC50 [9]: 2800 nM
CC50 [10, 22]: 500 nM
GI50 [10, 20]: 500 nM

Structure (SMILES): CC[C@]1(O)C[C@@H]2CN(CCc3c([nH]c4ccccc34)[C@@](C(=O)OC)(c3cc4c(cc3OC)N(C)[C@H]3[C@@](O)(C(=O)OC)[C@H](OC(C)=O)[C@]5(CC)C=CCN6CC[C@]43[C@@H]65)C2)C1 [Vinblastine]
Caspase cascade activation ratio, T-47D [11]: 0.9
Caspase cascade activation ratio, PC-3 [12]: 0.8

Structure (SMILES): CC(C)=CCC/C(C)=C/Cc1c(O)c(CC=C(C)C)c2c(c1O)C(=O)C1=CC3CC4C(C)(C)OC(C/C=C(/C)C=O)(C3=O)C14O2 (stereo not drawn) [Example 3, Gambogenin]
CC50 [1, 21]: 5000 nM
GI50 [1, 19]: 2000 nM
GI50 [3]: 3000 nM
CC50 at 48 h [4]: 5000 nM
PC-3 Ratio (caspase activity) [6, 23]: 2.9
CC50 [7]: 500 nM
GI50 ([7]; T-47D): 500 nM
T-47D Ratio (caspase activity) [9, 23]: 7.0
CC50 [10, 22]: 5000 nM
GI50 [10, 20]: 5000 nM

Structure (SMILES): CN(Cc1cnc2nc(N)nc(N)c2n1)c1ccc(C(=O)N[C@@H](CCC(=O)O)C(=O)O)cc1 [Methotrexate]
Caspase cascade activation ratio, T-47D [11]: 0.8
Caspase cascade activation ratio, PC-3 [12]: 0.7

Structure (SMILES): CC(=O)O[C@H]1C(=O)[C@@]2(C)[C@H]([C@H](OC(=O)c3ccccc3)[C@]3(O)C[C@H](OC(=O)[C@H](O)[C@@H](NC(=O)c4ccccc4)c4ccccc4)C(C)=C1C3(C)C)[C@]1(OC(C)=O)CO[C@@H]1C[C@@H]2O [Taxol]
Caspase cascade activation ratio, T-47D [11]: 0.9
Caspase cascade activation ratio, PC-3 [12]: 0.7

Structure (SMILES): COc1cccc2c1C(=O)c1c(O)c3c(c(O)c1C2=O)C[C@@](O)(C(=O)CO)C[C@@H]3O[C@H]1C[C@H](N)[C@H](O)[C@H](C)O1 [Doxorubicin]
Caspase cascade activation ratio, T-47D [11]: 1.3
Caspase cascade activation ratio, PC-3 [12]: 1.1

Structure (SMILES): CC(C)=CCCC1(C)C=Cc2c(O)c3c(c(CC=C(C)C)c2O1)OC12C(=CC4CC1C(C)(C)OC2(C/C=C(/C)C(=O)N1CCCCC1)C4=O)C3=O (stereo not drawn) [Example 5, Gambogyl Piperidine]
CC50 [13]: 500 nM
GI50 [13]: 500 nM
CC50 [14]: 500 nM
GI50 [14]: 300 nM
CC50 [1, 21]: 500 nM
GI50 [1, 19]: 500 nM
EC50 at 24 h [2]: 631 nM
GI50 [3]: 800 nM
CC50 at 48 h [4]: 800 nM
EC50 [5]: 783 nM
EC50 [6]: 900 nM
CC50 [7]: 50 nM
GI50 ([7]; T-47D): 50 nM
EC50 [8]: 200 nM
CC50 [15]: 5000 nM
GI50 [15]: 800 nM
CC50 [16]: 800 nM
GI50 [16]: 100 nM
EC50 [9]: 210 nM
CC50 [10, 22]: 500 nM
GI50 [10, 20]: 500 nM

Structure (SMILES): CC(C)=CCc1c2c(c(O)c3c1OC14C(=CC5CC1C(C)(C)OC4(C/C=C(\C)CO)C5=O)C3=O)C=CC(C)(C)O2 (stereo not drawn) [isomorellinol, reference compound]
Cytotoxicity against KB cell line [17, 24]: cytotoxic
Cytotoxicity against KB-V1 cell line [18, 24]: cytotoxic

EC50 at 24 h [2]: 1900 nM
EC50 [5]: 2050 nM
EC50 [6]: 5900 nM
EC50 [9]: 990 nM
Structure (SMILES): CC(C)=CCCC1(C)C=Cc2c(O)c3c(c(CC=C(C)C)c2O1)OC12C(=CC4CC1C(C)(C)OC2(C/C=C(/C)C(=O)N1CCN(C)CC1)C4=O)C3=O (stereo not drawn) [Example 9, Gambogyl (4-Methylpiperazine)]

Structure (SMILES): CC(C)=CCCC1(C)C=Cc2c(O)c3c(c(CC=C(C)C)c2O1)OC12C(=CC4CC1C(C)(C)OC2(C/C=C(\C)C(=O)O)C4=O)C3=O (stereo not drawn) [Example 18, Isogambogic Acid]
Cytotoxicity against KB cell line [17]: cytotoxic
Cytotoxicity against KB-V1 cell line [18]: cytotoxic
